Experimental data as given in ChEMBL document CHEMBL3600370, “Synthesis and evaluation of novel prenylated chalcone derivatives as anti-leishmanial and anti-trypanosomal compounds” (Bioorg Med Chem Lett, 2015).

Tests used:
[1] = Selectivity index, ratio of EC50 for BALB/c mouse peritoneal macrophages to EC50 for Leishmania infantum MHOM/BR/72 promastigotes
Leishmania amazonensis [2] = assay: Anti-leishmanial activity against Leishmania amazonensis MPRO/BR/1972/M1841-LV-79 promastigotes assessed as parasite growth inhibition incubated for 72 hrs by MTT assay; format: functional, organism-based; settings: MPRO/BR/1972/M1841-LV-79, 72 h
[3] = Cytotoxicity against Swiss mouse peritoneal macrophages incubated for 24 hrs by MTT assay; settings: Peritoneal macrophage cell
[4] = Selectivity index, ratio of EC50 for BALB/c mouse peritoneal macrophages to EC50 for Trypanosoma cruzi Y epimastigotes
Trypanosoma cruzi = assay: Anti-trypanosomal activity against Trypanosoma cruzi Y epimastigotes assessed as parasite growth inhibition incubated for 72 hrs by MTT assay; format: functional, organism-based
[5] = Selectivity index, ratio of EC50 for BALB/c mouse peritoneal macrophages to EC50 for Leishmania amazonensis MPRO/BR/1972/M1841-LV-79 promastigotes
Leishmania infantum [6] = assay: Anti-leishmanial activity against Leishmania infantum MHOM/BR/72 promastigotes assessed as parasite growth inhibition incubated for 72 hrs by MTT assay; format: functional, organism-based; settings: MHOM/BR/72, 72 h
[7] = Selectivity index, ratio of EC50 for BALB/c mouse peritoneal macrophages to EC50 for Leishmania amazonensis MPRO/BR/1972/M1841-LV-79 amastigotes
Leishmania amazonensis [8] = assay: Anti-leishmanial activity against Leishmania amazonensis MPRO/BR/1972/M1841-LV-79 amastigotes infected in BALB/c mouse peritoneal macrophages assessed as reduction in the infection index incubated for 24 hrs by Giemsa staining method; format: functional, organism-based; settings: MPRO/BR/1972/M1841-LV-79, 24 h
Leishmania infantum [9] = assay: Anti-leishmanial activity against Leishmania infantum MHOM/BR/72 amastigotes infected in BALB/c mouse peritoneal macrophages assessed as reduction in the infection index incubated for 24 hrs by Giemsa staining method; format: functional, organism-based; settings: MHOM/BR/72, 24 h
[10] = Selectivity index, ratio of EC50 for BALB/c mouse peritoneal macrophages to EC50 for Leishmania infantum MHOM/BR/72 amastigotes

EC50 (Trypanosoma cruzi) | EC50 (Leishmania amazonensis [8]) | EC50 (Leishmania infantum [9]) | SMILES | Ratio EC50 [1] | EC50 (Leishmania amazonensis [2]) | EC50 [3] | Ratio EC50 [4] | Ratio EC50 [5] | EC50 (Leishmania infantum [6]) | Ratio EC50 [7] | Ratio EC50 [10]
75.9 µM |  |  | O=C(/C=C/c1ccccc1O)c1ccccc1 | 1.56 | 334 µM | 143 µM | 1.88 | 0.43 | 91.7 µM |  | 
21.6 µM | 19.9 µM | 10.4 µM | CC(C)=CCOc1ccccc1/C=C/C(=O)c1ccccc1 | 23.73 | 4.38 µM | 111 µM | 5.16 | 25.41 | 4.69 µM | 5.58 | 10.69
69.4 µM | 2.9 µM | 2.24 µM | CC(C)=CCC/C(C)=C/CC/C(C)=C/COc1ccccc1/C=C/C(=O)c1ccccc1 | 13.78 | 6.47 µM | 141 µM | 2.03 | 21.74 | 10.2 µM | 48.5 | 62.79
26.2 µM | 25.8 µM | 63.9 µM | CC(C)=CCC/C(C)=C/COc1cccc(/C=C/C(=O)c2ccccc2)c1 | 10.49 | 8.92 µM | 81.9 µM | 3.12 | 9.18 | 7.81 µM | 3.17 | 1.28

More lines, now with the values behind:

SMILES | EC50 (Trypanosoma cruzi) | EC50 (Leishmania amazonensis [8]) | EC50 (Leishmania infantum [9]) | Ratio EC50 [1] | EC50 (Leishmania amazonensis [2]) | EC50 [3] | Ratio EC50 [4] | Ratio EC50 [5] | EC50 (Leishmania infantum [6]) | Ratio EC50 [7] | Ratio EC50 [10]
CC(C)=CCC/C(C)=C/CC/C(C)=C/COc1cccc(/C=C/C(=O)c2ccccc2)c1 | 23.8 µM | 21.9 µM | 32.5 µM | 9.22 | 9.25 µM | 55.1 µM | 2.32 | 6 | 5.98 µM | 2.52 | 1.69
O=C(/C=C/c1cccc(O)c1)c1ccccc1 [3-HYDROXY CHALCONE] | 68.3 µM |  |  | 0.96 | 412 µM | 143 µM | 2.09 | 0.35 | 185 µM |  | 
C[C@@H]1[C@H](O)[C@@H](C)/C=C/C=C/C=C/C=C/C=C/C=C/C=C/[C@H](O[C@@H]2O[C@H](C)[C@@H](O)[C@H](N)[C@@H]2O)C[C@@H]2O[C@](O)(C[C@@H](O)C[C@@H](O)[C@H](O)CC[C@@H](O)C[C@@H](O)CC(=O)O[C@H]1C)C[C@H](O)[C@H]2C(=O)O [AMPHOTERICIN B] |  | 4.92 µM | 2.98 µM | 25.11 | 3.22 µM | 23.1 µM |  | 7.17 | 0.92 µM | 4.7 | 7.75
O=C(Cn1ccnc1[N+](=O)[O-])NCc1ccccc1 [BENZNIDAZOLE] | 4.07 µM |  |  |  |  |  |  |  |  |  | 
O=C(/C=C/c1ccccc1)c1ccccc1 [CHALCONE] | 103 µM |  |  | 1.06 | 13.2 µM | 9.5 µM | 0.09 | 0.7 | 8.89 µM |  | 
N=C(N)c1ccc(OCCCCCOc2ccc(C(=N)N)cc2)cc1 [PENTAMIDINE] |  | 6.25 µM | 19.8 µM | 0.53 | 10.2 µM | 35.7 µM |  | 3.5 | 67.7 µM | 5.71 | 1.81
